Values of other authors in patent US11065266B2, “Method of treating melanoma using an inhibitor of an atypical protein kinase C” (UNIVERSITY OF SOUTH FLORIDA, priority 2016, dated 2021).

Biological target: T1, PKC-ι (Homo sapiens, UniProt P41743)
T1 sequence (P41743 1-596): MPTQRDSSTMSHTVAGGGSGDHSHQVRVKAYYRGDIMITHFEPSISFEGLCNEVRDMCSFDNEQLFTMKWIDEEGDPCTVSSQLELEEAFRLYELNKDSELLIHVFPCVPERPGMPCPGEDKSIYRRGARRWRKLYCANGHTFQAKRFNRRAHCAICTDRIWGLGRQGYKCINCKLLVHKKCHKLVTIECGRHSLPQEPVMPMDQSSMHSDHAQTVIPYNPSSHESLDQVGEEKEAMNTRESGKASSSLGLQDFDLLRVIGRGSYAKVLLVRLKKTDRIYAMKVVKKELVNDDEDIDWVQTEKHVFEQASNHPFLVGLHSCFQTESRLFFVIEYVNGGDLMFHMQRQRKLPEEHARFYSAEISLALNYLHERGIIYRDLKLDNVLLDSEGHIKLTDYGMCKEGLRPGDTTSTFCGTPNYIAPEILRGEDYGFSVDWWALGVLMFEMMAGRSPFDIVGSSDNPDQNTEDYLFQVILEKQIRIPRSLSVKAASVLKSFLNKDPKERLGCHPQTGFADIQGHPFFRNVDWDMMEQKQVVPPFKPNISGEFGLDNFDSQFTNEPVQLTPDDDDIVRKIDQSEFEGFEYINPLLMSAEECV
Details: cited from earlier work

Row | Structure (SMILES) | binding to PKC-ι
1 | O=C([O-])CC([S-])C(=O)[O-].[Au+].[Na+].[Na+] (centres unmarked) [Sodium aurothiomalate] | low micromolar range
2 | OC[C@H]1O[C@H]([S-])[C@H](O)[C@@H](O)[C@@H]1O.[Au+] [aurothioglucose] | low micromolar range
